Assay results from ChEMBL document CHEMBL4145625 (J Med Chem, 2018).

Key:
[1] = target: Phosphatidylinositol 4,5-bisphosphate 3-kinase catalytic subunit alpha isoform (Homo sapiens, UniProt P42336); assay: Inhibition of PI3Kalpha (unknown origin) using PIP2 as substrate by Kinase-Glo assay
[2] = test system: NCI-H460; assay: cells; assay type: functional, cell-based; conditions: Homo sapiens, NCI-H460, 96 h;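 also: cytotoxicity determined with an MTT assay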
Description: Cytotoxicity against human NCI-H460 cells after 96 hrs by MTT assay

Phosphatidylinositol 4,5-bisphosphate 3-kinase catalytic subunit alpha isoform, sequence (P42336 whole entry, canonical isoform): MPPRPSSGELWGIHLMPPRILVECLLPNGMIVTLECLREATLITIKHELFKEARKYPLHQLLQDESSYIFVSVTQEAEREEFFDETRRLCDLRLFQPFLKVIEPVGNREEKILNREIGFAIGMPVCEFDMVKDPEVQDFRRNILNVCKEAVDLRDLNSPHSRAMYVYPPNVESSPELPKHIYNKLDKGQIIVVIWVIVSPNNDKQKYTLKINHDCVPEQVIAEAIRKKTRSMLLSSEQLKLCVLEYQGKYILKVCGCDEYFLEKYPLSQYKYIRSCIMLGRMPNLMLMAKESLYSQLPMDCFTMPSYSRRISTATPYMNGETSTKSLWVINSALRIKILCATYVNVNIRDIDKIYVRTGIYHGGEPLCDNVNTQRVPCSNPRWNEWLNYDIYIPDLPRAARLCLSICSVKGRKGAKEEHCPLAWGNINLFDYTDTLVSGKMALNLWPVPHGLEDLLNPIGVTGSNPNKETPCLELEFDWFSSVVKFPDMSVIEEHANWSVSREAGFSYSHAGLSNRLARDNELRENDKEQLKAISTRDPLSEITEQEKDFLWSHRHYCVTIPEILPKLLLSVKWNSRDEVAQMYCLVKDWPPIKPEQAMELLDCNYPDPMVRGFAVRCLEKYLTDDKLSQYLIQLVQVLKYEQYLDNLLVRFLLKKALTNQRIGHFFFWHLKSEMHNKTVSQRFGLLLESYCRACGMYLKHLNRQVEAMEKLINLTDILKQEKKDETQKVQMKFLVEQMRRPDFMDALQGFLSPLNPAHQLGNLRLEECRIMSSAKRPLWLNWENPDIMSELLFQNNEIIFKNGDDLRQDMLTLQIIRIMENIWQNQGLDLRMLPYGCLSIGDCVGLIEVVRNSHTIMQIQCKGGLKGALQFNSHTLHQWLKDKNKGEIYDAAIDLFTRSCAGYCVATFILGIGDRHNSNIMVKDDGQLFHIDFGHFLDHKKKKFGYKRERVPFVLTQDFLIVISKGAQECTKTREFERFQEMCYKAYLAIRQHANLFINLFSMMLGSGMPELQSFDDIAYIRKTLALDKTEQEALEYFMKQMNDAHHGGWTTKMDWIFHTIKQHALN

IC50 [1] [nM] | Structure (SMILES) | IC50 [2] [nM]
16 | COc1ncc(-c2cc(OC3CCOCC3)c3nc(N)nc(C)c3c2)cc1F | 1100
1.4 | Cc1ncc(-c2cc(OC3CCOCC3)c3nc(N)nc(C)c3c2)cc1NS(=O)(=O)c1ccc(F)cc1F | 2100
0.87 | COc1ncc(-c2cc3c(C)nc(N)nc3n([C@H]3CC[C@H](OCCO)CC3)c2=O)cc1NS(=O)(=O)c1ccc(F)cc1F | 360
1.1 | COc1ncc(-c2cc(OC3CCOCC3)c3nc(N)nc(C)c3c2)cc1NS(=O)(=O)c1ccc(F)cc1Cl | 17
4.1 | CNc1nc(C)c2cc(-c3cnc(OC)c(NS(=O)(=O)c4ccc(F)cc4F)c3)cc(OC3CCC3)c2n1 | –
5.4 | COc1ncc(-c2cc(OC3CCOCC3)c3nc(NCC4CC4)nc(C)c3c2)cc1NS(=O)(=O)c1ccc(F)cc1F | 410
1.7 | Cc1nc(N)nc2c(OC3CCOCC3)cc(-c3cnc(Cl)c(NS(=O)(=O)c4ccc(F)cc4)c3)cc12 | 1200
3.3 | COc1ncc(-c2cc(OCCN3CCOCC3)c3nc(N)nc(C)c3c2)cc1NS(=O)(=O)c1ccc(F)cc1F | 1100
1.5 | CCNc1nc(C)c2cc(-c3cnc(OC)c(NS(=O)(=O)c4ccc(F)cc4F)c3)cc(OC3CCOCC3)c2n1 | 240
1.4 | COc1ncc(-c2cc(OCC3CC3)c3nc(N)nc(C)c3c2)cc1NS(=O)(=O)c1ccc(F)cc1F | 200
9.8 | CNc1nc(C)c2cc(-c3cnc(OC)c(NS(=O)(=O)c4ccc(F)cc4F)c3)cc(OC3CCCCC3)c2n1 | 1700
4.8 | COc1ncc(-c2cc(OC3CCN(C)CC3)c3nc(N)nc(C)c3c2)cc1NS(=O)(=O)c1ccc(F)cc1F | 660
1.1 | COc1ncc(-c2cc(OCC3CCCO3)c3nc(N)nc(C)c3c2)cc1NS(=O)(=O)c1ccc(F)cc1F (stereo unspecified) | –
0.83 | COc1ncc(-c2cc(O[C@H]3CCOC3)c3nc(N)nc(C)c3c2)cc1NS(=O)(=O)c1ccc(F)cc1F | 94
1.2 | COc1ncc(-c2cc(OCC3CCOC3)c3nc(N)nc(C)c3c2)cc1NS(=O)(=O)c1ccc(F)cc1F (stereo unspecified) | –
1.8 | CNc1nc(C)c2cc(-c3cnc(OC)c(NS(=O)(=O)c4ccc(F)cc4F)c3)cc(OCC3CCOCC3)c2n1 | 400
1.1 | COc1ncc(-c2cc(OC3CCOCC3)c3nc(N)nc(C)c3c2)cc1NS(=O)(=O)c1ccc(Cl)s1 | –
0.73 | COc1ncc(-c2cc(OCC3CCOCC3)c3nc(N)nc(C)c3c2)cc1NS(=O)(=O)c1ccc(F)cc1F | 21

IC50 [1] [nM] | Structure (SMILES) | IC50 [2] [nM]
1.4 | COc1ncc(-c2cc(OC3CCOCC3)c3nc(NC(C)=O)nc(C)c3c2)cc1NS(=O)(=O)c1ccc(F)cc1F | 53
– | COCCOc1cc(-c2cnc(OC)c(NS(=O)(=O)c3ccc(F)cc3F)c2)cc2c(C)nc(N)nc12 | 200
0.7 | COc1ncc(-c2cc(OC(C)C)c3nc(N)nc(C)c3c2)cc1NS(=O)(=O)c1ccc(F)cc1F | 140
2 | CNc1nc(C)c2cc(-c3cnc(OC)c(NS(=O)(=O)c4ccc(F)cc4F)c3)cc(OCC3CCOC3)c2n1 (stereo unspecified) | 310
2.5 | COc1ncc(-c2cc(OC3CCOCC3)c3nc(N)nc(C)c3c2)cc1NS(=O)(=O)C1CC1 | 930
125 | COc1ncc(-c2cc(OC3CCOCC3)c3nc(N(C)C)nc(C)c3c2)cc1NS(=O)(=O)c1ccc(F)cc1F | 4300
0.95 | COc1ncc(-c2cc(OC3CCCCC3)c3nc(N)nc(C)c3c2)cc1NS(=O)(=O)c1ccc(F)cc1F | 96
1.6 | COc1ncc(-c2cc(OC3CCC(F)(F)CC3)c3nc(N)nc(C)c3c2)cc1NS(=O)(=O)c1ccc(F)cc1F | 83
– | COc1ncc(-c2cc(OC)c3nc(N)nc(C)c3c2)cc1NS(=O)(=O)c1ccc(F)cc1F | 280
6.6 | CNc1nc(C)c2cc(-c3cnc(OC)c(NS(=O)(=O)c4ccc(F)cc4F)c3)cc(OC3CCCC3)c2n1 | –
1.4 | CNc1nc(C)c2cc(-c3cnc(OC)c(NS(=O)(=O)c4ccc(F)cc4F)c3)cc(O[C@H]3CCOC3)c2n1 | –
2.6 | COc1ncc(-c2cc(OC3CCOCC3)c3nc(N)nc(C)c3c2)cc1NS(C)(=O)=O | 860
1.8 | CNc1nc(C)c2cc(-c3cnc(OC)c(NS(=O)(=O)c4ccc(F)cc4F)c3)cc(OC3CCOC(C)(C)C3)c2n1 (stereo unspecified) | 250
31 | COc1ccc(-c2cc(OC3CCOCC3)c3nc(N)nc(C)c3c2)cn1 | 980
1.2 | COc1ncc(-c2cc(OC3CCOCC3)c3nc(N)nc(C)c3c2)cc1NS(=O)(=O)c1ccc(F)cc1 | 96
11 | COc1ncc(-c2cc(OC3CCOCC3)c3nc(NC(C)=O)nc(C)c3c2)cc1NS(C)(=O)=O | 3200
0.95 | COc1ncc(-c2cc(OC3CCC3)c3nc(N)nc(C)c3c2)cc1NS(=O)(=O)c1ccc(F)cc1F | –
